Experimental data from patent EP4069710B1, “PD(I) COMPLEXES, PROCESS FOR THEIR PREPARATION AND USE THEREOF AS ANTITUMOUR AGENTS” (Universita' Ca' Foscari Venezia, priority 2019, dated 2021).

Columns and labels:
Type in all cases: cell-based
MRC-5 = test: Antiproliferative activity on control cell line, cell viability by CellTiter-Glo after 96 hours; settings: MRC-5 (control; lung fibroblasts), mean ± standard deviation of triplicate measurements
Method: (§1) Tecan analyser, mod. Infinite® M1000.
(§2) Tests were performed for the purpose of determining the inhibitory concentration (IC50) of a compound of the invention towards tumour cell lines and on a control cell line; for comparative purposes, the same tests were performed with the cisplatin compound.
(§3) The tested cell lines were: A2780, A2780cis, OVCAR5, OVCAR3 e KURAMOCHI (ovarian cancer), A549 (lung cancer), HeLa (cervical cancer), DLD1 (colon cancer) and MRC-5 (control; lung fibroblasts). The mother solutions were obtained in dimethyl sulfoxide for the Pd(I) compound and in H2O for cisplatin.
(§4) The cells were kept, according to the protocols indicated by the suppliers, at 37 °C in an atmosphere containing 5% carbon dioxide. About 500 cells were plated on 96 different well-plates and kept under such conditions for 96 hours.
(§5) The viability of the cells was determined, after treatment of the cells with a 1:1 CellTiter-Glo® solution (registered trademark of Promega Corp., Madison, Wisconsin, USA) and DPBS, with the Tecan Infinite® M1000 instrument. The IC50 values were calculated by the response curves to the dose. The means and standard deviations were obtained from triplicate measurements.

Kuramochi = test: Antiproliferative activity, cell viability by CellTiter-Glo after 96 hours; settings: Kuramochi (ovarian cancer), mean ± standard deviation of triplicate measurements
Method: as §1, §2, §3, §4, §5

OVCAR5 = test: as above; settings: OVCAR5 (ovarian cancer), mean ± standard deviation of triplicate measurements
Method: as §1, §2, §3, §4, §5

OVCAR3 = test: as above; settings: OVCAR3 (ovarian cancer), mean ± standard deviation of triplicate measurements
Method: as §1, §2, §3, §4, §5

DLD1 = test: as above; settings: DLD1 (colon cancer), mean ± standard deviation of triplicate measurements
Method: as §1, §2, §3, §4, §5

A2780cis = test: as above; settings: A2780cis (ovarian cancer), mean ± standard deviation of triplicate measurements
Method: as §1, §2, §3, §4, §5

N.N.[Cl][Pt][Cl] [Cisplatin, cis-diamine-dichloroplatinum(II)]
IC50 (MRC-5): 14 ± 1 µM
IC50 (Kuramochi): 1.7 ± 0.3 µM
IC50 (OVCAR5): 5.2 ± 0.8 µM
IC50 (OVCAR3): 2.2 ± 0.1 µM
IC50 (DLD1): 4.2 ± 0.5 µM
IC50 (A2780cis): 43 ± 3 µM
